Experimental data: patent publication US20210255193A1, “LYSINE REACTIVE PROBES AND USES THEREOF” (The Scripps Research Institute, priority 2017, published 2021)
One block for each molecule: values may come before it.

Columns and labels:
[1] = molecular target: T1, AP1G1 AP-1 complex subunit gamma-1 (Homo sapiens, UniProt O43747); experiment: competitive isoTOP-ABPP; type: binding; conditions: for R value (DMSO/fragment) for probe 1 labeling: O43747_K214; for R value (DMSO/fragment) for probe 1 labeling / isoTOP-ABPP ratio (R) at liganded lysine O43747_K214 / isoTOP-ABPP reactivity ratio at lysine O43747_K214: 50 uM, in vitro; for R value (DMSO/fragment) for probe 1 labeling / isoTOP-ABPP reactivity ratio at lysine O43747_K214: 231 sol; for isoTOP-ABPP ratio (R) at liganded lysine O43747_K214: sol, 231
T1 construct: isoTOP-ABPP experiments performed in cell lysates (in vitro); endogenous in cells; host or cells: MDA-MB-231 soluble lysate
T1 sequence (O43747 1-822): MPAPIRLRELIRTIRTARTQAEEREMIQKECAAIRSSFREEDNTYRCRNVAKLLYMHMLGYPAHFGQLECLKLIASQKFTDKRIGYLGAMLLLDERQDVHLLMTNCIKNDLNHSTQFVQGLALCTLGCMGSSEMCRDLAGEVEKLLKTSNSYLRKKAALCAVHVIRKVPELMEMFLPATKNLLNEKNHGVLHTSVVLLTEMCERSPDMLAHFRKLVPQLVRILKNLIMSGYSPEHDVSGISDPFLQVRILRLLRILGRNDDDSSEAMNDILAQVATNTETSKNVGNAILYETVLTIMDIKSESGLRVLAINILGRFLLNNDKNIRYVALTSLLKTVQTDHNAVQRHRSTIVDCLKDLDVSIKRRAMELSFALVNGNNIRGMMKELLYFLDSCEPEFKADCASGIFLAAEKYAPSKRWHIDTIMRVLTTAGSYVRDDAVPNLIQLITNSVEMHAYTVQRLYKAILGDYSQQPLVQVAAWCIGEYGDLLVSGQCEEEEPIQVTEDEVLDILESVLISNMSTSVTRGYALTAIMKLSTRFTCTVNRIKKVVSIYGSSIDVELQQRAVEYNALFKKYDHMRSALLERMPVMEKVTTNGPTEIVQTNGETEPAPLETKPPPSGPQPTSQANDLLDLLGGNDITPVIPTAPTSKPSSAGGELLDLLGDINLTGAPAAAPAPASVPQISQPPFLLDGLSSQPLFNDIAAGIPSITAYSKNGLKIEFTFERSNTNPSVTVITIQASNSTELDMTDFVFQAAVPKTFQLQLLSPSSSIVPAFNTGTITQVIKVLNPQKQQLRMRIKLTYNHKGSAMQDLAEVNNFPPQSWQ
In short: (§1)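 Readout: isotopic light/heavy MS1 peak-area ratio (R, DMSO heavy over compound light), median across peptides sharing a modified lysine. Lysate received fragment (activated esters 50 μM, guanidinylating agents 100 μM final) or DMSO, then 0.1 mM STP-alkyne probe for 1 h at ambient temperature.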

[2] = molecular target: T2, GSTT2B Glutathione S-transferase theta-2B (Homo sapiens, UniProt P0CG30); experiment: competitive isoTOP-ABPP; type: binding; conditions: for R value (DMSO/fragment) for probe 1 labeling: P0CG30_K53; for R value (DMSO/fragment) for probe 1 labeling / isoTOP-ABPP ratio (R) at liganded lysine P0CG30_K53 / isoTOP-ABPP reactivity ratio at lysine P0CG30_K53: 50 uM, in vitro; for R value (DMSO/fragment) for probe 1 labeling / isoTOP-ABPP reactivity ratio at lysine P0CG30_K53: 231 sol; for isoTOP-ABPP ratio (R) at liganded lysine P0CG30_K53: sol, 231
T2 construct: isoTOP-ABPP experiments performed in cell lysates (in vitro); endogenous in cells; host or cells: MDA-MB-231 soluble lysate
T2 sequence (P0CG30 1-244): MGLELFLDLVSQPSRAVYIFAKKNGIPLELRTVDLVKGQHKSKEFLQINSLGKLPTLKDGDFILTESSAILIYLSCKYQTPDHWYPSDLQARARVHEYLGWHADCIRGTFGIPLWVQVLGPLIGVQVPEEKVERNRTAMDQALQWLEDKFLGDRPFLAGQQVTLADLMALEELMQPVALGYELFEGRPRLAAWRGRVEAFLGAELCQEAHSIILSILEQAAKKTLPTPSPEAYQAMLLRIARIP
In short: as §1

isoTOP-ABPP ratio, lysine O43747_K214 ([1]; 50 uM_231_sol_in vitro): 0.8
isoTOP-ABPP ratio, lysine P0CG30_K53 ([2]; 50 uM_231_sol_in vitro): 0.9
Compound: O=C(Oc1c(F)c(F)cc(F)c1F)c1cc(C(F)(F)F)cc(C(F)(F)F)c1 [fragment 48, 2,3,5,6-Tetrafluorophenyl 3,5-bis(trifluoromethyl)benzoate]

R value (DMSO/fragment) for probe 1 labeling [1]: 1.0
R value (DMSO/fragment) for probe 1 labeling [2]: 1.0
Compound: O=C(CCc1cn(-c2ccccc2)nc1-c1ccccc1)Oc1c(F)c(F)c(F)c(F)c1F [fragment 19, Pentafluorophenyl 3-(1,3-diphenyl-1H-pyrazol-4-yl)propanoate]

Compound: O=C(Oc1ccc([N+](=O)[O-])cc1[N+](=O)[O-])C(c1ccccc1)(c1ccccc1)c1ccccc1 [fragment 42, 2,4-Dinitrophenyl 2,2,2-triphenylacetate]
isoTOP-ABPP ratio (R) at liganded lysine O43747_K214 [1]: 0.8
isoTOP-ABPP ratio (R) at liganded lysine P0CG30_K53 [2]: 1.0

R value (DMSO/fragment) for probe 1 labeling [1]: 0.9
R value (DMSO/fragment) for probe 1 labeling [2]: 0.9
Compound: O=C(Oc1c(F)c(F)c(F)c(F)c1F)c1cc(C(F)(F)F)cc(C(F)(F)F)c1 [fragment 21, Pentafluorophenyl 3,5-bis(trifluoromethyl)benzoate]

Compound: CC(C)(C)OC(=O)NCCCC(=O)Oc1ccc([N+](=O)[O-])cc1[N+](=O)[O-] [fragment 41, 2,4-Dinitrophenyl 4-((tert-butoxycarbonyl)amino)butanoate]
isoTOP-ABPP ratio (R) at liganded lysine O43747_K214 [1]: 1.0
isoTOP-ABPP ratio (R) at liganded lysine P0CG30_K53 [2]: 0.5

isoTOP-ABPP ratio, lysine O43747_K214 ([1]; 50 uM_231_sol_in vitro): 0.8
isoTOP-ABPP ratio, lysine P0CG30_K53 ([2]; 50 uM_231_sol_in vitro): 0.6
Compound: O=C(Oc1c(F)c(F)c(C(F)(F)F)c(F)c1F)c1cc(C(F)(F)F)cc(C(F)(F)F)c1 [fragment 47, 2,3,5,6-Tetrafluoro-4-(trifluoromethyl)phenyl 3,5-bis(trifluoromethyl)benzoate]

Compound: O=C(Oc1ccc([N+](=O)[O-])cc1[N+](=O)[O-])C1CCN(C(=O)OCc2ccccc2)CC1 [fragment 34, 1-Benzyl 4-(2,4-dinitrophenyl) piperidine-1,4-dicarboxylate]
isoTOP-ABPP ratio (R) at liganded lysine O43747_K214 [1]: 1.7
isoTOP-ABPP ratio (R) at liganded lysine P0CG30_K53 [2]: 0.5

Compound: O=C(CCc1cn(-c2ccccc2)nc1-c1ccccc1)Oc1ccc([N+](=O)[O-])cc1[N+](=O)[O-] [fragment 29, 2,4-Dinitrophenyl 3-(1,3-diphenyl-1H-pyrazol-4-yl)propanoate]
isoTOP-ABPP reactivity ratio at lysine O43747_K214 [1]: 1.0
isoTOP-ABPP reactivity ratio at lysine P0CG30_K53 [2]: 0.7

isoTOP-ABPP reactivity ratio at lysine O43747_K214 [1]: 1.1
isoTOP-ABPP reactivity ratio at lysine P0CG30_K53 [2]: 1.3
Compound: O=C(CCc1coc2cc(F)ccc2c1=O)Oc1c(F)c(F)c(F)c(F)c1F [fragment 26, Pentafluorophenyl 3-(7-fluoro-4-oxo-4H-chromen-3-yl)propanoate]

isoTOP-ABPP ratio, lysine O43747_K214 ([1]; 50 uM_231_sol_in vitro): 0.9
isoTOP-ABPP ratio, lysine P0CG30_K53 ([2]; 50 uM_231_sol_in vitro): 0.7
Compound: NC(=O)c1cc(C(F)(F)F)cc(C(F)(F)F)c1 [fragment 51, reference compound]

isoTOP-ABPP reactivity ratio at lysine O43747_K214 [1]: 0.9
isoTOP-ABPP reactivity ratio at lysine P0CG30_K53 [2]: 0.9
Compound: O=C(CN1C(=O)c2ccccc2C1=O)Oc1c(F)c(F)c(F)c(F)c1F [fragment 27, Pentafluorophenyl 2-(1,3-dioxoisoindolin-2-yl)acetate]

Compound: Cn1cc(CC(=O)Oc2ccc([N+](=O)[O-])cc2[N+](=O)[O-])c2ccccc21 [fragment 32, 2,4-Dinitrophenyl 2-(1-methyl-1H-indol-3-yl)acetate]
isoTOP-ABPP reactivity ratio at lysine O43747_K214 [1]: 6.6
isoTOP-ABPP reactivity ratio at lysine P0CG30_K53 [2]: 0.8

Compound: O=C(CCc1ccc2c(c1)OCO2)Oc1ccc([N+](=O)[O-])cc1[N+](=O)[O-] [fragment 45, 2,4-Dinitrophenyl 3-(benzo[d][1,3]dioxol-5-yl)propanoate]
isoTOP-ABPP ratio, lysine O43747_K214 ([1]; 50 uM_231_sol_in vitro): 1.2
isoTOP-ABPP ratio, lysine P0CG30_K53 ([2]; 50 uM_231_sol_in vitro): 0.5

Compound: O=C(CCc1coc2cc(F)ccc2c1=O)Oc1ccc([N+](=O)[O-])cc1[N+](=O)[O-] [fragment 36, 2,4-Dinitrophenyl 3-(7-fluoro-4-oxo-4H-chromen-3-yl)propanoate]
isoTOP-ABPP ratio (R) at liganded lysine O43747_K214 [1]: 1.1
isoTOP-ABPP ratio (R) at liganded lysine P0CG30_K53 [2]: 0.5

isoTOP-ABPP ratio, lysine O43747_K214 ([1]; 100 uM_231_sol_in vitro): 1.0
isoTOP-ABPP ratio, lysine P0CG30_K53 ([2]; 100 uM_231_sol_in vitro): 3.1
Compound: COC(=O)NC(=NC(=O)OCC1c2ccccc2-c2ccccc21)n1cccn1 [fragment 49, N-Methoxycarbonyl-N′-9-fluorenylmethoxycarbonyl-pyrazole-1-carboxamidine]

Compound: O=C(CC12CC3CC(CC(C3)C1)C2)Oc1ccc([N+](=O)[O-])cc1[N+](=O)[O-] [fragment 38, 2,4-Dinitrophenyl 2-(adamantan-1-yl)acetate]
isoTOP-ABPP ratio (R) at liganded lysine O43747_K214 [1]: 0.9
isoTOP-ABPP ratio (R) at liganded lysine P0CG30_K53 [2]: 0.8

R value (DMSO/fragment) for probe 1 labeling [1]: 1.1
R value (DMSO/fragment) for probe 1 labeling [2]: 0.9
Compound: COc1cc(CCC(=O)Oc2c(F)c(F)c(F)c(F)c2F)cc(OC)c1OC [fragment 23, Pentafluorophenyl 3-(3,4,5-trimethoxyphenyl)propanoate]

R value (DMSO/fragment) for probe 1 labeling [1]: 1.1
R value (DMSO/fragment) for probe 1 labeling [2]: 1.0
Compound: Cn1cc(CC(=O)Oc2c(F)c(F)c(F)c(F)c2F)c2ccccc21 [fragment 22, Pentafluorophenyl 2-(1-methyl-1H-indol-3-yl)acetate]

Compound: O=C(Oc1ccc([N+](=O)[O-])cc1[N+](=O)[O-])c1ccc2ccccc2n1 [fragment 35, 2,4-Dinitrophenyl quinoline-2-carboxylate]
isoTOP-ABPP ratio (R) at liganded lysine O43747_K214 [1]: 1.0
isoTOP-ABPP ratio (R) at liganded lysine P0CG30_K53 [2]: 4.1

isoTOP-ABPP reactivity ratio at lysine O43747_K214 [1]: 1.0
isoTOP-ABPP reactivity ratio at lysine P0CG30_K53 [2]: 1.0
Compound: O=C(Oc1c(F)c(F)c(F)c(F)c1F)C1CCN(C(=O)OCc2ccccc2)CC1 [fragment 24, 1-Benzyl 4-(pentafluorophenyl) piperidine-1,4-dicarboxylate]

isoTOP-ABPP reactivity ratio at lysine O43747_K214 [1]: 1.0
isoTOP-ABPP reactivity ratio at lysine P0CG30_K53 [2]: 1.0
Compound: O=C(Oc1c(F)c(F)c(F)c(F)c1F)c1ccc2ccccc2n1 [fragment 25, Pentafluorophenyl quinoline-2-carboxylate]

R value (DMSO/fragment) for probe 1 labeling [1]: 0.9
R value (DMSO/fragment) for probe 1 labeling [2]: 1.0
Compound: O=C(Oc1c(F)c(F)c(F)c(F)c1F)C(c1ccccc1)c1ccccc1 [fragment 20, Pentafluorophenyl 2,2-diphenylacetate]

Compound: O=C(Oc1ccc([N+](=O)[O-])cc1[N+](=O)[O-])c1cc(C(F)(F)F)cc(C(F)(F)F)c1 [fragment 31, 2,4-Dinitrophenyl 3,5-bis(trifluoromethyl)benzoate]
isoTOP-ABPP reactivity ratio at lysine O43747_K214 [1]: 0.9
isoTOP-ABPP reactivity ratio at lysine P0CG30_K53 [2]: 0.8

isoTOP-ABPP ratio, lysine O43747_K214 ([1]; 100 uM_231_sol_in vitro): 1.0
isoTOP-ABPP ratio, lysine P0CG30_K53 ([2]; 100 uM_231_sol_in vitro): 1.4
Compound: CC(C)(C)OC(=O)N=C(NC(=O)OC(C)(C)C)n1cccn1 [fragment 50, reference compound]

Compound: O=C(Oc1ccc([N+](=O)[O-])cc1[N+](=O)[O-])c1ccccc1Nc1cccc(C(F)(F)F)c1 [fragment 40, 2,4-Dinitrophenyl 2-((3-(trifluoromethyl)phenyl)amino)benzoate]
isoTOP-ABPP ratio (R) at liganded lysine O43747_K214 [1]: 0.9
isoTOP-ABPP ratio (R) at liganded lysine P0CG30_K53 [2]: 0.6

Compound: N#Cc1ccc(C(=O)Oc2ccc([N+](=O)[O-])cc2[N+](=O)[O-])cc1 [fragment 44, 2,4-Dinitrophenyl 4-cyanobenzoate]
isoTOP-ABPP ratio, lysine O43747_K214 ([1]; 50 uM_231_sol_in vitro): 0.9
isoTOP-ABPP ratio, lysine P0CG30_K53 ([2]; 50 uM_231_sol_in vitro): 0.6

Compound: O=C(Oc1ccc([N+](=O)[O-])cc1[N+](=O)[O-])C(c1ccccc1)c1ccccc1 [fragment 30, 2,4-Dinitrophenyl 2,2-diphenylacetate]
isoTOP-ABPP reactivity ratio at lysine O43747_K214 [1]: 1.1
isoTOP-ABPP reactivity ratio at lysine P0CG30_K53 [2]: 0.6
